Data from PMC9780888, “4-Isobutylmethcathinone—A Novel Synthetic Cathinone with High In Vitro Cytotoxicity and Strong Receptor Binding Preference of Enantiomers” (Pharmaceuticals, 2022).
Where a name gives a salt, the structure may show the parent alone.

Experiments:
CaCo-2 cells = test: Fluorescence microscopy of cell morphology, CaCo-2; format: cell-based, human; conditions: CaCo-2, 24-h treatment, 100, 300 and 500 µM tested; cells smaller, roundish, in clusters
Source text: In addition to the evaluation of IBMcat cytotoxicity in various cell lines, its impact on cell morphology was also examined in CaCo-2 and MRC-5 cells after 24-h treatment. F-actin and cell nuclei were visualized in these cells treated with 100, 300, and 500-µM concentrations of IBMcat and its enantiomers. IBMcat (Figure 7) induced a considerable change in CaCo-2 cell morphology already from 300-µM concentration, the cells were smaller, bore roundish shapes, and grew in clusters when compared to control untreated cells. This could be ascribed to the substantial toxicity of IBMcat manifested already after 24 h at this concentration. No difference was observed between the individual enantiomers.
A total of 1 × 10^5 CaCo-2 and MRC-5 cells were seeded into 35-mm glass-bottom dishes for live-cell imaging ((#1.5, MatTek, USA; Ibidi dishes, Germany). After 16 h, the cells were gently washed with phosphate-buffered saline (PBS; pH 7.4), and then, cultivation media containing 100–500 µM IBMCat was added. Untreated cells and cells treated with the vehicle served as controls. After 24 h of the cell incubation with IBMCat, the cells were gently washed with PBS and then fixed with a 4% solution of formaldehyde (methanol-free, Thermo Fisher, USA) in PBS for 20 min. at 22 °C in the dark. Then, the fixative was discarded, and the cells were washed twice with PBS. […]

[1] = target: T1, ADRA2B (alpha-2B adrenergic receptor) (Homo sapiens, UniProt P18089); test: PRESTO-Tango β-arrestin 2 recruitment assay, ADRA2B; format: cell-based; conditions: 500 nM
T1 construct: Tango construct (TEV cleavage site and tTA, as described for the dopamine receptor plasmids); host or cells: HTLA (HEK 293-derived)
Description: (§1) The HTLA cell line was used for the PRESTO-Tango β-arrestin recruitment assay. The HTLA cells were provided as a gift from the laboratory of Bryan Roth (Roth Lab, USA). It is a human cell line derived from human embryonic kidney cells (HEK 293) stably expressing β-arrestin in a fusion with the tobacco etch virus protease (TEV) protease and the luciferase gene under the control of the transcription factor tetracycline transcriptional activator (tTA). The HTLA cells were cultured under standard incubation conditions (37 °C, 5% CO2, 95% humidity) in DMEM with 10% FBS. […]
(§2) The transfected HTLA cells were incubated for 24 h, and then 1 × 10^4 cells were seeded per well of a white 96-well clear bottom plate (Brand, Germany) in 40 μL of DMEM with 1% charcoal-stripped FBS (Thermo Fisher Scientific, USA). […] After 5 min., the luminescence was measured using a multi-mode microplate reader SpectraMax iD5 (Molecular Devices, San Jose, CA, USA) measuring the entire wavelength spectrum. All samples were measured in quadruplicates. The data were evaluated by Prism 7 software (GraphPad, […], CA, USA). […]
(§3) The error bar represents standard deviation from four replicates. The data were processed and evaluated by GraphPad Prism Software using one-way ANOVA: * p<0.05; ** p<0.01; *** […]

[2] = target: T2, ADRB2 (beta-2 adrenergic receptor) (Homo sapiens, UniProt P07550); test: PRESTO-Tango β-arrestin 2 recruitment assay, ADRB2; format: cell-based
T2 construct: Tango construct (TEV cleavage site and tTA, as described for the dopamine receptor plasmids); host or cells: HTLA (HEK 293-derived)
Description: as §1, §2, §3

[3] = target: T3, HTR2A (5-hydroxytryptamine receptor 2A) (Homo sapiens, UniProt P28223); test: PRESTO-Tango β-arrestin 2 recruitment assay, HTR2A; format: cell-based; conditions: 0-500 nM
T3 construct: Tango construct (TEV cleavage site and tTA, as described for the dopamine receptor plasmids); host or cells: HTLA (HEK 293-derived)
Description: as §1
(§4) The transfected HTLA cells were incubated for 24 h, and then 1 × 10^4 cells were seeded per well of a white 96-well clear bottom plate (Brand, Germany) in 40 μL of DMEM with 1% charcoal-stripped FBS (Thermo Fisher Scientific, USA). […] After 5 min., the luminescence was measured using a multi-mode microplate reader SpectraMax iD5 (Molecular Devices, San Jose, CA, USA) measuring the entire wavelength spectrum. All samples were measured in quadruplicates. The data were evaluated by Prism 7 software (GraphPad, San Jose, CA, USA).
(§5) Figure S13: β-arrestin 2 recruitment PRESTO-Tango assay: activation of the serotonin receptors. […] The data were processed and evaluated by GraphPad Prism Software using one-way […]

[4] = target: T4, HTR2B (5-hydroxytryptamine receptor 2B) (Homo sapiens, UniProt P41595); test: PRESTO-Tango β-arrestin 2 recruitment assay, HTR2B; format: cell-based; conditions: 0-500 nM
T4 construct: Tango construct (TEV cleavage site and tTA, as described for the dopamine receptor plasmids); host or cells: HTLA (HEK 293-derived)
Description: as §1, §4, §5

T2 sequence (P07550 whole entry): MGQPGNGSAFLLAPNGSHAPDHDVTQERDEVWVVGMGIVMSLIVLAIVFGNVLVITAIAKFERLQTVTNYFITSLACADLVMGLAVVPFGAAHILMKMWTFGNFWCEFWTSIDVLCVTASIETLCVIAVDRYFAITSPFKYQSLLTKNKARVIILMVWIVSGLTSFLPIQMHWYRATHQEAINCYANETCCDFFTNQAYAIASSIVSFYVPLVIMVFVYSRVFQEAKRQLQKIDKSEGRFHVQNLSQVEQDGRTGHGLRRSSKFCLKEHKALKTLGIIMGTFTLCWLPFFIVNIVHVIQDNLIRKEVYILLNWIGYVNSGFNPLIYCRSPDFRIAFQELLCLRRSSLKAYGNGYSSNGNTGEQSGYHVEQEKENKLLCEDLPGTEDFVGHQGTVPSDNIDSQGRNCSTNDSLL
T4 sequence (P41595 whole entry): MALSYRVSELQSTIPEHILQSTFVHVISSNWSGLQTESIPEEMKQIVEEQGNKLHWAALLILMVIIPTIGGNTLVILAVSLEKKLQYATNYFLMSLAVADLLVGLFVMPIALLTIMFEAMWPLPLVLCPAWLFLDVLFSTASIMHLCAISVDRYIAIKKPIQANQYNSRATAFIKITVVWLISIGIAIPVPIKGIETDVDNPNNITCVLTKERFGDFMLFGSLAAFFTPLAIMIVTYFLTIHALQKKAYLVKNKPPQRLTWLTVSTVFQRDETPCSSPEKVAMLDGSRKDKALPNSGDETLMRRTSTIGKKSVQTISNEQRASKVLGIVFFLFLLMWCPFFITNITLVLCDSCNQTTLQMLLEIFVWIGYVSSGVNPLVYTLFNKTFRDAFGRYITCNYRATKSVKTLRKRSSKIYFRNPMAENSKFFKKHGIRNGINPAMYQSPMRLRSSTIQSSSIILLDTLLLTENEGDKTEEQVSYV
T3 sequence (P28223 whole entry): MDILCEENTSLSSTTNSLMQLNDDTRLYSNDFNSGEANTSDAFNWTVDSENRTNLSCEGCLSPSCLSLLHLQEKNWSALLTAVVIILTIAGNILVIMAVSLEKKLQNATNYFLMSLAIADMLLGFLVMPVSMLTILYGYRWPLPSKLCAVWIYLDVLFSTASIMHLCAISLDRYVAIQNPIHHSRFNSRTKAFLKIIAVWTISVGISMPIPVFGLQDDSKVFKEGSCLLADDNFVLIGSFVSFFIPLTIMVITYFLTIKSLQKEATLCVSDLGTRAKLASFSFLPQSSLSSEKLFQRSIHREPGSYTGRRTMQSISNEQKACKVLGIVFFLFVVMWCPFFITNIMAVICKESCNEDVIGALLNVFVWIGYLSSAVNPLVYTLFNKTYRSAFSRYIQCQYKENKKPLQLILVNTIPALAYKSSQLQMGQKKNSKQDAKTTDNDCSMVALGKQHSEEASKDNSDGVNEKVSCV
T1 sequence (P18089 whole entry): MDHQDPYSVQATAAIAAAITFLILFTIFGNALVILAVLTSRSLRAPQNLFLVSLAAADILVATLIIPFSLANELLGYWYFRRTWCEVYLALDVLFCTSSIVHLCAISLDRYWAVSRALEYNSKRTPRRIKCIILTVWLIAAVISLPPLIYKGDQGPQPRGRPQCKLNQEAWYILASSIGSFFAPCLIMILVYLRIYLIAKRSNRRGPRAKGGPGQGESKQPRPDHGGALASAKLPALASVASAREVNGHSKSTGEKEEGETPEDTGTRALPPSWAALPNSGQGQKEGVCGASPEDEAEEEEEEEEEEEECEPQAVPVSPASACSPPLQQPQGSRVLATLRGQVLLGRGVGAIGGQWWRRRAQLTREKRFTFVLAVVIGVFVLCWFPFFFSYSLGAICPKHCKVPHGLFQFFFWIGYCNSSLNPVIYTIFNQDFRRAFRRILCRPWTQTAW

SMILES | concentration from which a considerable change in cell morphology was induced (CaCo-2 cells) | increase in RLU compared to untreated control [1] | increase in the luminescence signal ([2]; ADRB2, 50 and 100 nM) | agonistic activity for HTR2A [3] | agonistic activity for HTR2B [4] | increase in the luminescence signal ([2]; ADRB2, 1 and 5 nM)
CNC(C)C(=O)c1ccc(CC(C)C)cc1.Cl (stereo not drawn) [IBMcat, 4-isobutylmethcathinone hydrochloride] | ≥ 300 µM | 1.5 fold | 1.5 fold | did not exhibit any agonistic activity | did not exhibit any agonistic activity | –
CN[C@@H](C)C(=O)c1ccc(CC(C)C)cc1 [S-IBMCat, (S)-4-isobutylmethcathinone hydrochloride] | – | – | – | – | – | 1.5 fold
